Patent US10414739B2, “Compounds as inhibitors of the YAP/TAZ-TEAD interaction and their use in the treatment of malignant mesothelioma” (INVENTIVA, priority 2015, dated 2019)
Counter-ions that a name gives are not always drawn.

Biological target: T1, YAP-TEAD interaction (human YAP2-His6 (50-114) / human TEAD1-GST (209-426)) (Homo sapiens, UniProt P28347)
T1 construct: GST-TEAD1 (209-426) produced in E. coli; made in house; host or cells: E. coli
Assay: YAP-TEAD AlphaLISA assay
Format: binding
Conditions: for Emax: 2 h, maximal % inhibition, read-out: Max Act.; for Emax / IC50: YAP-TEAD AlphaLISA; for IC50: 2 h equilibration at room temperature
Experimental: YAP-TEAD AlphaLISA Assay for IC50 Value Determination.
YAP-TEAD binding and inhibition was assessed by monitoring the engagement of YAP2 peptide (human YAP2-His6 (50-114) produced in E. coli) with TEAD (human TEAD1-GST (GST-TEAD1 (209-426) produced in E. coli) using the AlphaLisa technology (Perkin-Elmer). Specifically, in a 384 well (Axygen) 5 μl of compounds were dispensed in 100% DMSO following a semi log serial dilution, with a top concentration of […] (10 concentrations). A ‘3 partners solution’ was prepared by mixing AlphaScreen Glutathione Donor beads 15 μg/ml (PerkinElmer), Anti-6×His AlphaLisA Acceptor beads 15 μg/ml (PerkinElmer) and Human YAP2 9 nM in 100 mM NaCl, 25 mM Hepes, 0.1% BSA, 0.5% NoNidet®P40 buffer. In the 384 assay plate (Proxiplate, Perkin-Elmer)) 2 μl of compound at each concentration, 6 μl of buffer, 6 μl of hTEAD1-GST 9 nM and 6 μl of ‘3 partner solution’ were mixed. After 2 h equilibration at room temperature in the dark the plates were read on an Envision instrument (Excitation @ 680 nm/Emission @ 570 nm, Perkin Elmer).
Results were expressed as % inhibition=100×((HighControl−Cpd)/(HighControl−LowControl)), were High control is the maximum response obtained with all components and Low control is the basal response obtained with all components without GST-Tead1.
Cpd is the response obtained for test compounds.
IC50 (half maximal inhibitory concentration) was determined by fitting the concentration response curves using a 3-parameter curve fit equation and determining concentration corresponding to 50% inhibition.

T1 sequence (P28347 209-426): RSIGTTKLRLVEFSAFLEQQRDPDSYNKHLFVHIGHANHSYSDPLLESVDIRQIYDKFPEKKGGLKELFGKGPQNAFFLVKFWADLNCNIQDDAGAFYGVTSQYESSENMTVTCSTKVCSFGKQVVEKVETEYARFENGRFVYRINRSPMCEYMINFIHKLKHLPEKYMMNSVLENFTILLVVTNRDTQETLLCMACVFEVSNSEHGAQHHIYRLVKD

SMILES | Emax [%] | IC50 [µM] | inhibition at 1000 µM (at 1 mM concentration) [%]
COc1cc(/C=N/N(CCN2CCOCC2)C2=NS(=O)(=O)c3c(OC)cc(C)cc32)ccc1O [Example 32, 2-methoxy-4-[(E)-[(7-methoxy-5-methyl-1,1-dioxo-1,2-benzothiazol-3-yl)-(2-morpholinoethyl)hydrazono]methyl]phenol hydrochloride] | 95 | 0.139 | 
COCCN(/N=C/c1ccc(O)c(OC)c1)C1=NS(=O)(=O)c2ccc(C)cc21 [Example 28, 2-methoxy-4-[(E)-[2-methoxyethyl-(5-methyl-1,1-dioxo-1,2-benzothiazol-3-yl) hydrazono]methyl]phenol] | 94 | 2.65 | 
COc1ccc2c(c1)C(N(CCO)/N=C/c1ccc(O)c(OC)c1)=NS2(=O)=O [Example 11, 4-[(E)-[2-hydroxyethyl-(5-methoxy-1,1-dioxo-1,2-benzothiazol-3-yl) hydrazono]methyl]-2-methoxy-phenol] | 94 | 0.475 | 
COc1ccc2c(c1)C(N(CCN1CCOCC1)/N=C/c1ccc(O)c(OC)c1)=NS2(=O)=O [Example 12, 2-methoxy-4-[(E)-[(5-methoxy-1,1-dioxo-1,2-benzothiazol-3-yl)-(2-morpholinoethyl)hydrazono]methyl]phenol] | 95 | 0.583 | 
COc1cc(OC)c2c(c1)C(N(C)/N=C/c1ccc(O)c(OC)c1)=NS2(=O)=O [Example 16, 4-[(E)-[(5,7-dimethoxy-1,1-dioxo-1,2-benzothiazol-3-yl)-methyl-hydrazono]methyl]-2-methoxy-phenol] | 86 | 0.095 | 
COc1cc(/C=N/N(C)C2=NS(=O)(=O)c3cc(C)ccc32)ccc1O [Example 33, 2-methoxy-4-[(E)-[methyl-(6-methyl-1,1-dioxo-1,2-benzothiazol-3-yl)hydrazono]methyl]phenol] | 90 | 0.766 | 
COCCN(/N=C/c1ccc(O)c(OC)c1)C1=NS(=O)(=O)c2ccc(OC)cc21 [Example 15, 2-methoxy-4-[(E)-[(5-methoxy-1,1-dioxo-1,2-benzothiazol-3-yl)-(2-methoxyethyl)hydrazono]methyl]phenol] | 89 | 2.89 | 
CCN(/N=C/c1ccc(O)c(OC)c1)C1=NS(=O)(=O)c2ccccc21 [Example 3, 4-[(E)-[(1,1-dioxo-1,2-benzothiazol-3-yl)-ethyl-hydrazono]methyl]-2-methoxy-phenol] | 88 | 5 | 
COc1ccc2c(c1)C(N(C)/N=C/c1ccc(O)c(OC)c1)=NS2(=O)=O [Example 35, 2-methoxy-4-[(E)-[(5-methoxy-1,1-dioxo-1,2-benzothiazol-3-yl)-methyl-hydrazono]methyl]phenol] | 77 | 0.354 | 
COc1cc(/C=N/N(CCN2CCOCC2)C2=NS(=O)(=O)c3c(OC)cccc32)ccc1O [Example 23, 2-methoxy-4-[(E)-[(7-methoxy-1,1-dioxo-1,2-benzothiazol-3-yl)-(2-morpholinoethyl)hydrazono]methyl]phenol hydrochloride] | 99 | 0.305 | 
COc1cc(/C=N/N(C)C2=NS(=O)(=O)c3cc(-c4ccccc4)ccc32)ccc1O [Example 39, 4-[(E)-[(1,1-dioxo-6-phenyl-1,2-benzothiazol-3-yl)-methyl-hydrazono]-methyl]-2-methoxy-phenol] | 61 | 62.2 | 
COc1cc(/C=N/N(C)C2=NS(=O)(=O)c3ccc(F)cc32)ccc1O [Example 42, 4-[(E)-[(5-fluoro-1,1-dioxo-1,2-benzothiazol-3-yl)-methyl-hydrazono]-methyl]-2-methoxy-phenol] | 84 | 2.47 | 
COc1ccc2c(c1)C(N(CCCO)/N=C/c1ccc(O)c(OC)c1)=NS2(=O)=O [Example 14, 4-[(E)-[3-hydroxypropyl-(5-methoxy-1,1-dioxo-1,2-benzothiazol-3-yl) hydrazono]methyl]-2-methoxy-phenol] | 90 | 1.63 | 
COc1ccc2c(c1)S(=O)(=O)N=C2N(C)/N=C/c1ccc(O)c(OC)c1 [Example 40, 2-methoxy-4-[(E)-[(6-methoxy-1,1-dioxo-1,2-benzothiazol-3-yl)-methyl hydrazono]methyl]phenol] | 91 | 16.2 | 
COCCCN(/N=C/c1ccc(O)c(OC)c1)C1=NS(=O)(=O)c2ccccc21 [Example 10] | 92 | 5 | 
COc1cc(/C=N/N(CC(=O)NCCO)C2=NS(=O)(=O)c3ccccc32)ccc1O [Example 9, 2-[(1,1-dioxo-1,2-benzothiazol-3-yl)-[(E)-(4-hydroxy-3-methoxy-phenyl)methyleneamino]amino]-N-(2-hydroxyethyl)acetamide] | 96 | 11.6 | 
COc1cc(/C=N/N(CC(F)(F)F)C2=NS(=O)(=O)c3ccccc32)ccc1O [Example 37, 4-[(E)-[(1,1-dioxo-1,2-benzothiazol-3-yl)-(2,2,2-trifluoroethyl)-hydrazono]methyl]-2-methoxy-phenol] | 74 | 70.8 | 
COc1cc(/C=N/N(CCCN(C)C)C2=NS(=O)(=O)c3ccccc32)ccc1O [Example 6, 4-[(E)-[3-(dimethylamino)propyl-(1,1-dioxo-1,2-benzothiazol-3-yl)hydrazono]methyl]-2-methoxy-phenol hydrochloride] | 95 | 7.04 | 
COc1cc(/C=N/N(C)C2=NS(=O)(=O)c3c(OC)cccc32)ccc1O [Example 21, 2-methoxy-4-[(E)-[(7-methoxy-1,1-dioxo-1,2-benzothiazol-3-yl)-methyl-hydrazono]methyl]phenol] | 89 | 0.123 | 
COc1ccc(/C=N/N(C)C2=NS(=O)(=O)c3ccccc32)cc1OC [N-[(E)-(3,4-dimethoxyphenyl)methyleneamino]-N-methyl-1,1-dioxo-1,2-benzothiazol-3-amine, reference compound] |  |  | 30
COc1cc(/C=N/N(CCO)C2=NS(=O)(=O)c3c(OC)cc(C)cc32)ccc1O [Example 29, 4-[(E)-[2-hydroxyethyl-(7-methoxy-5-methy-1,1-dioxo-1,2-benzothiazol-3-yl) hydrazono]methyl]-2-methoxy-phenol] | 91 | 0.13 | 
COc1ccc2c(c1)C(N(CCCN1CCOCC1)/N=C/c1ccc(O)c(OC)c1)=NS2(=O)=O [Example 13, 2-methoxy-4-[(E)-[(5-methoxy-1,1-dioxo-1,2-benzothiazol-3-yl)-(3-morpholinopropyl)hydrazono]methyl]phenol hydrochloride] | 95 | 2.12 | 
COc1cc(/C=N/N(CCO)C2=NS(=O)(=O)c3ccc(C)cc32)ccc1O [Example 27, 4-[(E)-[2-hydroxyethyl-(5-methyl-1,1-dioxo-1,2-benzothiazol-3-yl)hydrazono]methyl]-2-methoxy-phenol] | 91 | 0.891 | 
COc1cc(/C=N/N(C2=NS(=O)(=O)c3ccccc32)c2ccc(C(=O)O)cc2)ccc1O [Example 38, 4-[(1,1-dioxo-1,2-benzothiazol-3-yl)-[(E)-(4-hydroxy-3-methoxy-phenyl)methyleneamino]amino]benzoic acid] | 99 | 105 | 
COCCN(/N=C/c1ccc(O)c(OC)c1)C1=NS(=O)(=O)c2c(OC)cccc21 [Example 24, 2-methoxy-4-[(E)-[(7-methoxy-1,1-dioxo-1,2-benzothiazol-3-yl)-(2-methoxyethyl)hydrazono]methyl]phenol] | 92 | 0.902 | 
COc1cc(/C=N/N(C2=NS(=O)(=O)c3ccccc32)C(C)C)ccc1O [Example 36, 4-[(E)-[(1,1-dioxo-1,2-benzothiazol-3-yl)-isopropyl-hydrazono]methyl]-2-methoxy-phenol] | 77 | 78 | 
COc1cc(/C=N/N(CCN2CCOCC2)C2=NS(=O)(=O)c3ccc(C)cc32)ccc1O [Example 26, 2-methoxy-4-[(E)-[(5-methyl-1,1-dioxo-1,2-benzothiazol-3-yl)-(2-morpholinoethyl)hydrazono]methyl]phenol hydrochloride] | 95 | 0.399 | 
COc1cc(/C=N/N(C)C2=NS(=O)(=O)c3c(OC)cc(C)cc32)ccc1O [Example 31, 2-methoxy-4-[(E)-[(7-methoxy-5-methyl-1,1-dioxo-1,2-benzothiazol-3-yl)-methyl-hydrazono]methyl]phenol] | 92 | 0.131 | 
COc1cc(OC)c2c(c1)C(N(CCO)/N=C/c1ccc(O)c(OC)c1)=NS2(=O)=O [Example 17, 4-[(E)-[(5,7-dimethoxy-1,1-dioxo-1,2-benzothiazol-3-yl)-(2-hydroxyethyl) hydrazono]methyl]-2-methoxy-phenol] | 90 | 0.15 | 
